In patent US20140030808A1, “Method for Cellular RNA Expression” (BIONTECH AG, priority 2010, published 2014):

Tested on: CCD1079SK fibroblasts
Experiment: Intracellular abundance and half-life of IVT-RNA constructs (qRT-PCR)
Assay type: cell-based, human
Method: (A) CCD1079SK fibroblasts were either mock electroporated or electroporated with IVT RNA encoding for firefly luciferase (1 μg), eGFP (1.25 μg), SV40 Large T (1.25 μg), HPV16-E6 (1.25 μg), OCT4, SOX2, KLF4, cMYC, NANOG and LIN28 (2.5 μg OCT4 and equimolar amounts for the others). Electroporations were performed in 2 mm gap cuvettes using optimized parameters for CCDs. After electroporation cells were either left untreated or incubated with 2 μM C13H8N4OS for 24 h or 48 h. After 72 h cells were harvested to extract total RNA and perform qRT-PCR analysis for the codon optimized IVT-RNA constructs OCT4 and SOX2. […] Decay of transcripts was plotted against time and difference between half-lifes (t1/2) of the construct in absence or presence of C13H8N4OS was calculated (Δt1/2=t1/2 (+C13H8N4OS)−t1/2 (−C13H8N4OS)). […]
Total cellular RNA was extracted from cells with RNeasy Mini Kit or RNeasy Micro Kit (Qiagen, Hilden, Germany), reverse transcribed with oligo-dT18 using Superscript II (Invitrogen, Carlsbad, Calif., USA), and subjected to real-time quantitative analysis on ABI PRISM 7700 Sequence Detection System instrument and software (Applied Biosystems, Foster City, Calif., USA) using the QuantiTect SYBR Green PCR Kit (Qiagen). […]

O=C1Nc2ccc3ncsc3c2/C1=C/c1c[nH]cn1 [C13H8N4OS, 6,8-dihydro-8-(1H-imidazol-5-ylmethylene)-7H-pyrrolo[2,3-g]benzothiazol-7-one]
abundance of IVT RNA (OCT4, SOX2 constructs) (2 μM for 24 h or 48 h, harvested after 72 h): increased the abundance of IVT RNA for 72 h | prolongation of half life of IVT RNA constructs OCT4, SOX2, KLF4 and cMYC (Δt1/2) (2 μM for 80 h, presence vs absence of C13H8N4OS): 1 to 2.5 h
